In the supplement of paper PMC10307832:

Key:
Experiment in all cases: relative viability (nuclei count vs DMSO), 5 days (fraction); higher = more cells survive
[1] = compound: CC(O)(CS(=O)(=O)c1ccc(F)cc1)C(=O)Nc1ccc(C#N)c(C(F)(F)F)c1 [Bicalutamide] + CS(=O)(=O)CCNCc1ccc(-c2ccc3ncnc(Nc4ccc(OCc5cccc(F)c5)c(Cl)c4)c3c2)o1 [Lapatinib] (partner 2 µM)
Summary of the method: (§1)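 Values are medians from duplicate plates. Each reflects relative viability, defined as the nuclei count of treated wells over that of vehicle wells. Lung cancer cell lines in 1536-well plates were pin-tool dosed one day after seeding with one drug alone or with a fixed anchor-drug dose plus five library-drug doses (not always all listed) in √10 steps, then fixed, stained and imaged at 4× after 5 days.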

[2] = compound: C(C(=O)C(=O)O)Br [Bromopyruvate] + N=C(N)NC(=N)NCCc1ccccc1 [Phenformin] (partner 250 µM)
Summary of the method: as §1

[3] = compound: CC(O)(CS(=O)(=O)c1ccc(F)cc1)C(=O)Nc1ccc(C#N)c(C(F)(F)F)c1 [Bicalutamide] + O=C(CCCCCCC(=O)Nc1ccccc1)NO [Vorinostat] (partner 1 µM)
Summary of the method: as §1

[4] = compound: C(C(=O)C(=O)O)Br [Bromopyruvate] + O=C(CCCCCCC(=O)Nc1ccccc1)NO [Vorinostat] (partner 1 µM)
Summary of the method: as §1

| Cell Line | relative viability ([1]; first compound 0.08 µM) | relative viability ([1]; first compound 0.253 µM) | relative viability ([1]; first compound 0.8 µM) | relative viability ([1]; first compound 2.53 µM) | relative viability ([2]; first compound 1 µM) | relative viability ([2]; first compound 3.162 µM) | relative viability ([2]; first compound 10 µM) | relative viability ([2]; first compound 31.62 µM) | relative viability ([2]; first compound 100 µM) | relative viability ([3]; first compound 0.08 µM) | relative viability ([3]; first compound 0.253 µM) | relative viability ([3]; first compound 0.8 µM) | relative viability ([3]; first compound 2.53 µM) | relative viability ([4]; first compound 1 µM) | relative viability ([4]; first compound 3.162 µM) | relative viability ([4]; first compound 10 µM) | relative viability ([4]; first compound 31.62 µM) | relative viability ([4]; first compound 100 µM) |
| --- | --- | --- | --- | --- | --- | --- | --- | --- | --- | --- | --- | --- | --- | --- | --- | --- | --- | --- |
| H3255 | 0.112 | 0.239 | 0.315 | 0.198 | 0.365 | 0.421 | 0.432 | 0.399 | 0.37 | 0.808 | 0.755 | 0.969 | 0.69 | 0.941 | 0.781 | 0.771 | 0.763 | 0.85 |
| SK-MES-1 | 0.48 | 0.456 | 0.472 | 0.46 | 0.653 | 0.651 | 0.671 | 0.658 | 0.668 | 1.21 | 1.07 | 1.19 | 1.03 | 1.08 | 1.2 | 1.04 | 0.94 | 0.965 |
| NCI-H1437 | 0.826 | 0.736 | 1.01 | 0.711 | 0.339 | 0.293 | 0.398 | 0.281 | 0.288 | 0.839 | 0.832 | 0.875 | 0.859 | 0.918 | 0.672 | 0.74 | 0.694 | 0.529 |
| LU99A | 0.958 | 0.847 | 1.28 | 0.798 | 0.751 | 0.753 | 0.89 | 0.921 | 0.794 | 0.461 | 0.436 | 0.626 | 0.43 | 0.46 | 0.526 | 0.567 | 0.532 | 0.409 |
| HCC-827 | 0.171 | 0.178 | 0.171 | 0.193 | 0.438 | 0.43 | 0.395 | 0.389 | 0.413 | 0.921 | 0.639 | 1.15 | 0.815 | 0.844 | 0.982 | 0.968 | 0.886 | 0.741 |
| LK-2 | 0.901 | 0.852 | 1.11 | 0.898 | 0.411 | 0.673 | 0.432 | 0.57 | 0.496 | 0.346 | 0.339 | 0.354 | 0.311 | 0.333 | 0.203 | 0.218 | 0.297 | 0.165 |
| HCC-366 | 1.09 | 1.05 | 1.12 | 1 | 0.592 | 0.649 | 0.635 | 0.597 | 0.648 | 0.368 | 0.331 | 0.52 | 0.134 | 0.375 | 0.368 | 0.408 | 0.307 | 0.227 |
| BEN | 0.674 | 0.589 | 0.984 | 0.858 | 0.279 | 0.265 | 0.266 | 0.262 | 0.279 | 0.537 | 0.719 | 0.588 | 0.617 | 0.588 | 0.581 | 0.485 | 0.608 | 0.411 |
| NCI-H2347 | 1.11 | 0.935 | 0.989 | 0.784 | 0.463 | 0.35 | 0.572 | 0.312 | 0.566 | 0.574 | 0.587 | 0.709 | 0.581 | 0.645 | 0.541 | 0.542 | 0.495 | 0.473 |
| NCI-H1395 | 0.858 | 0.956 | 1.29 | 0.869 | 0.419 | 0.43 | 0.424 | 0.443 | 0.445 | 0.882 | 0.666 | 0.792 | 0.624 | 1.03 | 0.791 | 0.649 | 0.683 | 0.681 |
| 201T | 1.07 | 0.95 | 1.06 | 1.02 | 0.504 | 0.489 | 0.481 | 0.453 | 0.455 | 1.11 | 0.957 | 1.05 | 0.977 | 0.967 | 1.01 | 0.984 | 0.912 | 0.971 |
| NCI-H2170 | 0.286 | 0.271 | 0.268 | 0.24 | 0.414 | 0.487 | 0.435 | 0.41 | 0.379 | 0.794 | 0.741 | 0.867 | 0.803 | 0.911 | 0.853 | 0.79 | 0.802 | 0.705 |
| NCI-H520 | 0.817 | 0.674 | 1.01 | 0.779 | 0.646 | 0.648 | 0.623 | 0.702 | 0.473 | 0.831 | 0.728 | 0.881 | 0.596 | 0.543 | 0.745 | 0.706 | 0.731 | 0.469 |
| NCI-H727 | 0.945 | 0.763 | 1.09 | 0.77 | 0.607 | 0.778 | 0.578 | 0.622 | 0.527 | 1.38 | 1.08 | 1.24 | 1.19 | 1.28 | 1.26 | 1.24 | 0.886 | 1.23 |
| HCC-15 | 0.797 | 0.813 | 0.966 | 0.875 | 0.472 | 0.5 | 0.521 | 0.466 | 0.456 | 0.746 | 0.761 | 0.954 | 0.899 | 0.792 | 0.838 | 0.782 | 0.818 | 0.686 |
| ABC-1 | 1.45 | 1.06 | 1.26 | 1.28 | 0.24 | 0.262 | 0.271 | 0.262 | 0.239 | 1.06 | 0.805 | 1.5 | 0.947 | 1.27 | – | – | – | 0.612 |
| NCI-H460 | 1.08 | 0.881 | – | 0.972 | 0.512 | 0.556 | 0.658 | 0.494 | 0.508 | 0.763 | 0.439 | 0.92 | 0.779 | 0.74 | 0.71 | 0.599 | 0.524 | 0.565 |
| EPLC-272H | 0.788 | 0.771 | 0.92 | 0.875 | 0.31 | 0.314 | 0.309 | 0.367 | 0.347 | 0.437 | 0.401 | 0.573 | 0.479 | 0.36 | 0.38 | 0.359 | 0.44 | 0.347 |
